In general, IC50 refers to the concentration needed to halve the response being measured.

The text below walks through data of patent publication US20240261249A1, “NOVEL SQUARAMIDE DERIVATIVE AND USE THEREOF” (PUSAN NATIONAL UNIVERSITY INDUSTRY-UNIVERSITY COOPERATION …, priority 2021, published 2024).

Common to all, as to format: cell-based
One assay has as its system Phospho-eIF2α (Ser51). In words: Phospho-eIF2α (Ser51) Sandwich ELISA in K562 cells. Particulars: Homo sapiens, K562, 6 h, serum-free RPMI, 10 μM compound, control = 1, read-out: eIF2α phosphorylation, absorbance standardized to control (DMSO-treated) set to 1, at 10 μM. Put shortly: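 K562 cells in serum-free RPMI (37 °C, 5% CO2) were exposed to compounds at 10 μM for 6 h, then lysed, and 50 μg protein was run in the sandwich ELISA. Absorbance was normalised to the DMSO control set to 1.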

The test system of another assay is K562 cell line. As to the kind of experiment: CCK-8 anti-proliferative assay, K562. As to conditions: Homo sapiens, 72 h, K562, culture for 3 days. The protocol: CCK-8 assay (cell counting kit-8 assay, Dojindo, Kumamoto, Japan) was performed. The K562 cell line was cultured in RPMI medium supplemented with 10% FBS and 1% ABAM at 37° C. in the presence of 5% CO2. Cells were treated with test compounds at concentrations of 0 μM, 1.25 μM, 2.5 μM, 5 μM, 10 μM, and 20 μM, respectively. After culture for 3 days, 10 μL of CCK-8 solution was treated and cultured for 4 hours. Subsequently, the absorbance was measured at 450 nm to obtain the IC50 value of each compound.
The experimental values for the K562 cell line are identical to biological Example 2.

Assay [1] concerns PBMC (peripheral blood monocyte cells isolated from normal donors). In words: CCK-8 assay, PBMC (normal cells). Particulars: for IC50: 72 h, PBMC normal cells, culture for 3 days, CCK-8, tested 0-20 μM; for SI (selectivity index): K562 cells compared to PBMC. The protocol: PBMC (peripheral blood monocyte cells isolated from normal donors) cell lines were dispensed in RPMI medium supplemented with 10% FBS and 1% ABAM at 37° C. in the presence of 5% CO2, and then the test compounds were treated at concentrations of 0 μM, 1.25 μM, 2.5 μM, 5 μM, 10 μM, and 20 μM, respectively. After culture for 3 days, 10 μL of CCK-8 solution was treated and cultured for 4 hours. Subsequently, the absorbance at 450 nm was measured to obtain the IC50 value of each compound.
(Tetrazolium assays rely on reduction of a dye to a coloured formazan, in cell work by metabolically active cells.)

[2] abbreviates: CCK-8, Table 3 (identical to Example 2), tested 0-20 μM, read-out: IC50 K562.

Molecules are shown by their SMILES. Like-named read-outs stand apart in the source and are kept apart here.

Turning to `O=c1c(Nc2cccc(Cl)c2)c(N[C@H]2CC[C@H](Oc3ccc([N+](=O)[O-])cc3)CC2)c1=O` [Compound 20, 3-((3-Chlorophenyl)amino)-4-(((1,4-trans)-4-(4-nitrophenoxy)cyclohexyl)amino)cyclobut-3-ene-1,2-dione], in the assay with Phospho-eIF2α (Ser51), the activity at 10 µM stood at 190%. For the same compound, the IC50 was 16.1 µM in the assay with K562 cell line (CCK-8, Table 2, read-out: IC50); 16.1 µM in the assay on K562 cell line (setting [2]); 20 µM in assay [1]. For the same compound, in assay [1], the “SI (selectivity index)” value is reported as 1.40.
Regarding `O=c1c(Nc2cccc(C(F)(F)F)c2)c(N[C@H]2CC[C@H](Oc3ccc(C(F)(F)F)cc3)CC2)c1=O` [Compound 23, 3-(((1,4-trans)-4-(4-(Trifluoromethyl)phenoxy)cyclohexyl)amino)-4-((3-(trifluoromethyl)phenyl)amino)cyclobut-3-ene-1,2-dione], in the assay on Phospho-eIF2α (Ser51), the activity at 10 µM was 201%. Also, the half-inhibitory concentration (IC50) amounted to 3.96 µM with K562 cell line (CCK-8, Table 2, read-out: IC50); 3.96 µM with K562 cell line (setting [2]); 10.8 µM in assay [1]. Moreover, the “SI (selectivity index)” value in assay [1] was 2.77.
Consider `N#Cc1ccc(O[C@H]2CC[C@H](Nc3c(Nc4cccc(C(F)(F)F)c4)c(=O)c3=O)CC2)cc1` [Compound 24, 4-(((1,4-trans)-4-((3,4-Dioxo-2-((3-(trifluoromethyl)phenyl)amino)cyclobut-1-en-1-yl)amino)cyclohexyl)oxy)benzonitrile], for which, in the assay on Phospho-eIF2α (Ser51), the activity at 10 µM came to 195%. The half-maximal inhibitory concentration (IC50) in the assay on K562 cell line (CCK-8, Table 2, read-out: IC50) was 5.94 µM; in the assay with K562 cell line (setting [2]) it was 5.94 µM; in assay [1], 22.5 µM. Besides, the “SI (selectivity index)” value in assay [1] worked out at 3.82.
Regarding `O=c1c(Nc2cccc(C(F)(F)F)c2)c(N[C@H]2CC[C@H](Oc3ccc([N+](=O)[O-])cc3)CC2)c1=O` [Compound 25, 3-(((1,4-trans)-4-(4-Nitrophenoxy)cyclohexyl)amino)-4-((3-(trifluoromethyl)phenyl)amino)cyclobut-3-ene-1,2-dione], the activity at 10 µM with Phospho-eIF2α (Ser51) worked out at 140%. The IC50 in the assay with K562 cell line (CCK-8, Table 2, read-out: IC50) turned out to be 12.2 µM; with K562 cell line (setting [2]), 12.2 µM; in assay [1], 16 µM. Also, the “SI (selectivity index)” value in assay [1] stood at 1.27.
As for `CC(C)(C)c1cccc(Nc2c(N[C@H]3CC[C@H](Oc4ccc(C(F)(F)F)cc4)CC3)c(=O)c2=O)c1` [Compound 28, 3-((3-(tert-Butyl)phenyl)amino)-4-(((1,4-trans)-4-(4-(trifluoromethyl)phenoxy)cyclohexyl)amino)cyclobut-3-ene-1,2-dione], the IC50 in the assay with K562 cell line (CCK-8, Table 2, read-out: IC50) was 6.8 µM; in the assay with K562 cell line (setting [2]) it was 6.8 µM; in assay [1], 19.4 µM. Moreover, in assay [1], the “SI (selectivity index)” value is recorded as 2.86.
Regarding `CC(C)(C)c1cccc(Nc2c(N[C@H]3CC[C@H](Oc4ccc(C#N)cc4)CC3)c(=O)c2=O)c1` [Compound 29, 4-(((1,4-trans)-4-((2-((3-(tert-Butyl)phenyl)amino)-3,4-dioxocyclobut-1-en-1-yl)amino)cyclohexyl)oxy)benzonitrile], the activity at 10 µM in the assay with Phospho-eIF2α (Ser51) is 176%. The 50% inhibitory concentration (IC50) was 4.09 µM in the assay with K562 cell line (CCK-8, Table 2, read-out: IC50); 4.09 µM in the assay on K562 cell line (setting [2]); 17 µM in assay [1]. Moreover, the “SI (selectivity index)” value in assay [1] was 3.82.
In the case of `CC(C)(C)c1cccc(Nc2c(N[C@H]3CC[C@H](Oc4ccc([N+](=O)[O-])cc4)CC3)c(=O)c2=O)c1` [Compound 30, 3-((3-(tert-Butyl)phenyl)amino)-4-(((1,4-trans)-4-(4-nitrophenoxy)cyclohexyl)amino)cyclobut-3-ene-1,2-dione], the activity at 10 µM in the assay on Phospho-eIF2α (Ser51) came out at 112%. In addition, the IC50 in the assay on K562 cell line (CCK-8, Table 2, read-out: IC50) stood at 5.09 µM; with K562 cell line (setting [2]) it was 5.09 µM; in assay [1], 12.8 µM. Also, in assay [1], the “SI (selectivity index)” value is on record as 2.61.
With `CC(C)(C)c1cccc(Nc2c(N[C@H]3CC[C@H](Oc4ccc(S(C)(=O)=O)cc4)CC3)c(=O)c2=O)c1` [Compound 31, 3-((3-(tert-Butyl)phenyl)amino)-4-(((1,4-trans)-4-(4-(methylsulfonyl)phenoxy)cyclohexyl)amino)cyclobut-3-ene-1,2-dione], the activity at 10 µM in the assay with Phospho-eIF2α (Ser51) is 150%. For the same compound, the IC50 in the assay on K562 cell line (CCK-8, Table 2, read-out: IC50) came to 5.69 µM; in the assay on K562 cell line (setting [2]), 5.69 µM; in assay [1], 35.1 µM. In addition, the “SI (selectivity index)” value in assay [1] is given as 6.10.
Consider `N#Cc1cc(Nc2c(N[C@H]3CC[C@H](Oc4ccc(C(F)(F)F)cc4)CC3)c(=O)c2=O)cc(C(F)(F)F)c1` [Compound 83, 3-((3,4-Dioxo-2-(((1,4-trans)-4-(4-(trifluoromethyl)phenoxy)cyclohexyl)amino)cyclobut-1-en-1-yl)amino)-5-(trifluoromethyl)benzonitrile], for which the activity at 10 µM with Phospho-eIF2α (Ser51) amounted to 184%. Moreover, the IC50 in the assay with K562 cell line (CCK-8, Table 2, read-out: IC50) was 4 µM; with K562 cell line (setting [2]) it was 4 µM; in assay [1] it was 19.3 µM. In assay [1], the “SI (selectivity index)” value came to 4.46.
With `N#Cc1ccc(O[C@H]2CC[C@H](Nc3c(Nc4cc(C#N)cc(C(F)(F)F)c4)c(=O)c3=O)CC2)cc1` [Compound 84, 3-((2-(((1,4-trans)-4-(4-Cyanophenoxy)cyclohexyl)amino)-3,4-dioxocyclobut-1-en-1-yl)amino)-5-(trifluoromethyl)benzonitrile], the activity at 10 µM with Phospho-eIF2α (Ser51) turned out to be 143%. The concentration for half-maximal inhibition (IC50) turned out to be 10.1 µM in the assay on K562 cell line (CCK-8, Table 2, read-out: IC50); 10.1 µM with K562 cell line (setting [2]); 29.4 µM in assay [1]. Further, the “SI (selectivity index)” value in assay [1] came out at 2.26.
Regarding `CS(=O)(=O)c1ccc(O[C@H]2CC[C@H](Nc3c(Nc4cc(C#N)cc(C(F)(F)F)c4)c(=O)c3=O)CC2)cc1` [Compound 86, 3-((2-(((1,4-trans)-4-(4-(Methylsulfonyl)phenoxy)cyclohexyl)amino)-3,4-dioxocyclobut-1-en-1-yl)amino)-5-(trifluoromethyl)benzonitrile], the activity at 10 µM in the assay with Phospho-eIF2α (Ser51) stood at 168%. Moreover, the IC50 with K562 cell line (CCK-8, Table 2, read-out: IC50) was found to be 14.2 µM; in the assay on K562 cell line (setting [2]), 14.2 µM; in assay [1], 21 µM. Further, the “SI (selectivity index)” value in assay [1] is on record as 1.31.
